Experimental data from patent publication US20060009423A1, “Phosphonate-phosphate and diphosphonate apolipoprotein e modulators” (priority 2002, published 2006).

What was measured:
apoE in sciatic nerve = test: Sciatic nerve tissue apoE levels in vivo, rat model of sciatic injury (ELISA); conditions: rats, orally, 400 mg/kg/day for 37 days; % change from control
Description: A rat model of sciatic injury was established according to Goodrum & Boudin, 1996. Rats with or without nerve injury were treated orally with compound 1 (400 mg/kg for 5 weeks). The amount of apoE was determined in homogenates of the sciatic nerves by ELISA using a goat anti-apolipoprotein E antibody. A dilution to 1/200 of rat plasma was coated on microtiter plates; apoE was recognized by the polyclonal antibody; the conjugate (anti-goat IgG peroxidase) antibody was then added for substrate biochemical recognition. Apolipoprotein E was expressed as % change from mean control value. Cholesterol was measured with a commercially available enzymatic kit (Bioreac, Switzerland). Results were expressed as % change from control group.

plasma apoE = test: Plasma apoE levels in vivo in rats fed a normal diet; design: species or system rat; conditions: orally, 400 mg/kg per day for 5 days
Source text: A convenient model for the screening of apoE modulating compounds is the model described in Leininger-Muller & Siest, 1996. This model involves the use of rats fed a normal diet. Selected compounds of formula (I) ae submitted to the in vivo rat test. Following are the results for compound 1, diethyl α-(dimethoxyphosphinyl)-p-chlorobenzyl phosphate: [drawing 3]
Two groups of 4 or 5 OFA rats (Iffa-Credo, France) weighing between 140 g and 160 g were acclimatized for at least one week, allowed UAR food and tap water ad libitum, under a 12/12 hours light/obscurity cycle (7.00 am-7.00 pm) then treated daily between 3.00 pm and 4.00 pm with test compounds ([…]) p.o. in a vehicle volume of 1 ml for 5 days. Compound 1 was given as a suspension in 20% Tween-80 supplemented with 0.5% carboxymethylcellulose. Control group received 1 ml vehicle alone. After a treatment period of 5 days, rats were weighed, sacrificed by decapitation under pentobarbital anesthesia after an overnight fast. Blood was collected on EDTA and plasma was used for analysis. When given orally to rats at the dose of 400 mg/kg per day for 5 days, compound 1 increased plasma apoE by 61±8%.

apoE plasma levels = test: ApoE plasma levels in vivo in the rat (ATRA)
THP-1 cells = test: In vitro apoE secretion by THP-1 cells (ELISA); assay type: cell-based, human; conditions: 72 hours incubation, ELISA of culture medium
Source text: The in vitro assay comprises determining the effect of a compound of formula (I) in modulating the secretion of apoE by an apoE secreting cell line (e.g., a monocyte-macrophage cell line such as the THP-1 cell line, a liver derived cell line such as the HepG2 cell line, an intestinal derived cell line such as the CaCo2 cell line, or a brain derived cell line such as the astrocytoma CCF-STTG1 cell line). The experimental details for use of the THP-1 cell line in the in vitro assay are provided below.
The THP-1 cell line was derived from the peripheral blood of a child with acute monocytic leukaemia and were obtained from the European Collection of Animal Cell Cultures (ECACC, #88081201). […] The cells are grown as non-adherent cells in RPMI 1640 culture medium, 2 mM glutamine, 20 μM 2-mercaptoethanol. Fresh medium is added to maintain cell density between 2 and 9×10^5 cells/ml. […]
Ninety-six well-microtiter plates are coated by incubating with a 5% gelatin solution from porcine skin, bloom 60 in 50 mM carbonate-bicarbonate buffer, pH9.6 at the concentration of 200 μl/well, for 2 hours at 37° C. The coating solution is carefully removed and the sample to be analyzed was added (100 μl/well) at the appropriate dilution. […] The absorbance at 492 nm versus 620 nm is read on a microplate photometer and the results are then converted in human apoE ng equivalent. […]

## CCOP(=O)(OCC)OC(c1ccc(Cl)cc1)P(=O)(OC)OC (stereo not drawn) [compound 1, diethyl α-(dimethoxyphosphinyl)-p-chlorobenzyl phosphate]
apoE in sciatic nerve
  increase of apoE in the contralateral nerve: 58%
  increase of apoE in the crushed sciatic nerve: 154%
Plasma apoE
  increase of plasma apoE: 61±8%

## CC1=C(/C=C/C(C)=C/C=C/C(C)=C/C(=O)O)C(C)(C)CCC1 [ATRA, all-trans retinoic acid]
apoE plasma levels
  apoE plasma levels observed in vivo in the rat: decreased apoE plasma levels
THP-1 cells
  production of apoE by THP-1 cells: decreased the production of apoE
